What follows are compounds tested against T1, wild-type human ALK (cytoplasmic domain, amino acids 1058-1620, N-terminal GST fusion) (Homo sapiens, UniProt Q9UM73) (assay: ALK Inhibition in Enzyme Assay (Lance TR-FRET kinase assay)). Conditions: not given.
T1 construct: The cytoplasmic domain (amino acids 1058-1620) of wild-type human ALK; GST (N); made in house; host or cells: SF9 insect cells
Assay type: biochemical
Procedure, shortened: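 TR-FRET read-out (Eu-W1024 PT66 anti-phosphotyrosine plus streptavidin-allophycocyanin, 320 nm excitation) quantified biotinylated peptide phosphorylation by the purified kinase. Reaction ran 90 minutes at room temperature before quenching with 20 mM EDTA in Tris pH 7.5 buffer with NaCl, BSA and Tween-20.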

T1 sequence (Q9UM73 1058-1620): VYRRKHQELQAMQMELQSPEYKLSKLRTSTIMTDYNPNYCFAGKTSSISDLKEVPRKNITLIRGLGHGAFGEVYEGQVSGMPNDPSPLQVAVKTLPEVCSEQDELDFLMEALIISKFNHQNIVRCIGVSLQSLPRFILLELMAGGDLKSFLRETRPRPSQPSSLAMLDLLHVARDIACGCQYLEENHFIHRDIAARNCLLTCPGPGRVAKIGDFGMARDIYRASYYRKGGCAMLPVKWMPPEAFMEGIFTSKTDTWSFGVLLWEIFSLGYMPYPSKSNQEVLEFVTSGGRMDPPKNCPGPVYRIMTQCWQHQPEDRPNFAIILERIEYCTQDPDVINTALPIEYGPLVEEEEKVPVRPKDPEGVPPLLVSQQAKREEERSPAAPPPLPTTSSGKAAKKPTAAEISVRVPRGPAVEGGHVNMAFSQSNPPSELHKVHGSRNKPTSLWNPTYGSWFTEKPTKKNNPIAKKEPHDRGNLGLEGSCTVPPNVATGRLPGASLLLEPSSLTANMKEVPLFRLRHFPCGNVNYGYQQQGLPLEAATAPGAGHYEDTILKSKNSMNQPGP

Row | IC50 [µM] | Compound
1 | < 0.05 | C=CCNS(=O)(=O)c1cccc(C(=O)/N=c2\[nH]c3ccc(CN4CCC(C(C)(C)O)CC4)cc3n2[C@H]2CC[C@H](C(N)=O)CC2)c1 [Example 235, (E)-3-(N-Allylsulfamoyl)-N-(1-(trans-4-carbamoylcyclohexyl)-6-((4-(2-hydroxypropan-2-yl)piperidin-1-yl)methyl)-1H-benzo[d]imidazol-2(3H)-ylidene)benzamide]
2 | 0.1 to 1 | C=CCNS(=O)(=O)c1cccc(C(=O)/N=c2\[nH]c3cnc(OCCN4CCCCC4)cc3n2[C@H]2CC[C@H](C(=O)NC(C)C)CC2)c1 [Example 131, (E)-3-(N-Allylsulfamoyl)-N-(1-(trans-4-(isopropylcarbamoyl)cyclohexyl)-6-(2-(piperidin-1-yl)ethoxy)-1H-imidazo[4,5-c]pyridin-2(3H)-ylidene)benzamide]
3 | < 0.05 | CC(C)NC(=O)[C@H]1CC[C@@H](n2/c(=N/C(=O)c3ccc(F)cc3)[nH]c3cnc(OCCN4CCC(C(C)(C)O)CC4)cc32)CC1 [Example 128, (E)-4-Fluoro-N-(6-(2-(4-(2-hydroxypropan-2-yl)piperidin-1-yl)ethoxy)-1-(cis-4-(isopropylcarbamoyl)cyclohexyl)-1H-imidazo[4,5-c]pyridin-2(3H)-ylidene)benzamide]
4 | 0.05 to 0.1 | C=CCNS(=O)(=O)c1cccc(C(=O)/N=c2\[nH]c3cnc(OCCN4CCCCC4)cc3n2[C@H]2CC[C@H](C(N)=O)CC2)c1 [Example 244, (E)-3-(N-Allylsulfamoyl)-N-(1-(trans-4-carbamoylcyclohexyl)-6-(2-(piperidin-1-yl)ethoxy)-1H-imidazo[4,5-c]pyridin-2(3H)-ylidene)benzamide]
5 | 0.05 to 0.1 | CC(C)(O)C1CCN(Cc2ccc3[nH]/c(=N\C(=O)c4ccc(F)cc4)n([C@H]4CC[C@H](C(N)=O)CC4)c3c2)CC1 [Example 233, (E)-N-(1-(trans-4-Carbamoylcyclohexyl)-6-((4-(2-hydroxypropan-2-yl)piperidin-1-yl)methyl)-1H-benzo[d]imidazol-2(3H)-ylidene)-4-fluorobenzamide]
6 | 0.05 to 0.1 | CC(C)(O)CNC(=O)[C@H]1CC[C@@H](n2/c(=N/C(=O)c3ccc(F)cc3)[nH]c3ccc(CN4CCOCC4)cc32)CC1 [Example 206, (E)-4-Fluoro-N-(1-(cis-4-(2-hydroxy-2-methylpropylcarbamoyl)-cyclohexyl)-6-(morpholinomethyl)-1H-benzo[d]imidazol-2(3H)-ylidene)benzamide]
7 | < 0.05 | COCCOc1cc2c(cn1)[nH]/c(=N\C(=O)c1ccc(F)cc1)n2[C@H]1CC[C@@H](C(=O)NC(C)C)CC1 [Example 159, (E)-4-Fluoro-N-(1-(cis-4-(isopropylcarbamoyl)cyclohexyl)-6-(2-methoxyethoxy)-1H-imidazo[4,5-c]pyridin-2(3H)-ylidene)benzamide]
8 | < 0.05 | CC(C)NC(=O)[C@H]1CC[C@@H](n2/c(=N/C(=O)c3ccc(C#N)cc3)[nH]c3cnc(OCCN4CCCCC4)cc32)CC1 [Example 89, (E)-4-Cyano-N-(1-(cis-4-(isopropylcarbamoyl)cyclohexyl)-6-(2-(piperidin-1-yl)ethoxy)-1H-imidazo[4,5-c]pyridin-2(3H)-ylidene)benzamide]
9 | 0.05 to 0.1 | C[C@H]1CN(C(=O)[C@H]2CC[C@@H](n3/c(=N/C(=O)c4ccccc4)[nH]c4cnc(OCCN5CCCCC5)cc43)CC2)CCN1 [Example 62]
10 | < 0.05 | CC(C)NC(=O)[C@H]1CC[C@@H](n2/c(=N/C(=O)c3ccnc(F)c3)[nH]c3cnc(OCCN4CCCCC4)cc32)CC1 [Example 106, (E)-2-Fluoro-N-(1-(cis-4-(isopropylcarbamoyl)cyclohexyl)-6-(2-(piperidin-1-yl)ethoxy)-1H-imidazo[4,5-c]pyridin-2(3H)-ylidene)isonicotinamide]
11 | 1 to 5 | O=C(/N=c1\[nH]c2cnc(OCCN3CCCCC3)cc2n1C1CCNCC1)c1ccccc1 [Example 65, (E)-N-(6-(2-(Piperidin-1-yl)ethoxy)-1-(piperidin-4-yl)-1H-imidazo[4,5-c]pyridin-2(3H)-ylidene)benzamide]
12 | 0.05 to 0.1 | CC(C)C(=O)N[C@H]1CC[C@@H](n2/c(=N/C(=O)c3ccc(F)cc3)[nH]c3ccc(CN4CCC(C(C)(C)O)CC4)cc32)CC1 [Example 227, (E)-4-Fluoro-N-(6-((4-(2-hydroxypropan-2-yl)piperidin-1-yl)methyl)-1-(cis-4-isobutyramidocyclohexyl)-1H-benzo[d]imidazol-2(3H)-ylidene)benzamide]
13 | < 0.05 | COC(=O)[C@H]1CC[C@@H](n2/c(=N/C(=O)c3ccc(F)cc3)[nH]c3ccc(CN4CCOCC4)cc32)CC1 [Example 85, cis-Methyl 4-((E)-2-(4-fluorobenzoylimino)-6-(morpholinomethyl)-2,3-dihydro-1H-benzo[d]imidazol-1-yl)cyclohexanecarboxylate]
14 | < 0.05 | CC(C)NC(=O)[C@H]1CC[C@@H](n2/c(=N/C(=O)c3ccc(F)cc3)[nH]c3ccc(F)cc32)CC1 [Example 220, (E)-4-Fluoro-N-(6-fluoro-1-(cis-4-(isopropylcarbamoyl)cyclohexyl)-1H-benzo[d]imidazol-2(3H)-ylidene)benzamide]
15 | < 0.05 | CONC(=O)[C@H]1CC[C@@H](n2/c(=N/C(=O)c3ccc(F)cc3)[nH]c3ccc(CN4CCC(C(C)(C)O)CC4)cc32)CC1 [Example 213, (E)-4-Fluoro-N-(6-((4-(2-hydroxypropan-2-yl)piperidin-1-yl)methyl)-1-(cis-4-(methoxycarbamoyl)cyclohexyl)-1H-benzo[d]imidazol-2(3H)-ylidene)benzamide]
16 | < 0.05 | C=CCNS(=O)(=O)c1cc(C(=O)/N=c2\[nH]c3ccc(CN4CCCCC4)cc3n2[C@H]2CC[C@@H](C(N)=O)CC2)ccc1F [Example 38, (E)-3-(N-Allylsulfamoyl)-N-(1-(cis-4-carbamoylcyclohexyl)-6-(piperidin-1-ylmethyl)-1H-benzo[d]imidazol-2(3H)-ylidene)-4-fluorobenzamide]
17 | < 0.05 | C=CCNS(=O)(=O)c1cccc(C(=O)/N=c2\[nH]c3ccc(CO)cc3n2C23CC4CC(CC(C4)C2)C3)c1 [Example 17, (E)-3-(N-Allylsulfamoyl)-N-(1-adamantyl-6-(hydroxymethyl)-1H-benzo[d]imidazol-2(3H)-ylidene)benzamide]
18 | < 0.05 | CC(C)NC(=O)[C@H]1CC[C@@H](n2/c(=N/C(=O)c3ccc(F)cc3)[nH]c3ccc(CN4CCC(CNCC(F)(F)F)CC4)cc32)CC1 [Example 190, (E)-4-Fluoro-N-(1-(cis-4-(isopropylcarbamoyl)cyclohexyl)-6-((4-((2,2,2-trifluoroethylamino)methyl)piperidin-1-yl)methyl)-1H-benzo[d]imidazol-2(3H)-ylidene)benzamide]
19 | 0.05 to 0.1 | CC(C)NC(=O)[C@H]1CC[C@@H](n2/c(=N/C(=O)c3ccc(F)c(C(F)(F)F)c3)[nH]c3cnc(OCCN4CCCCC4)cc32)CC1 [Example 114, (E)-4-Fluoro-N-(1-(cis-4-(isopropylcarbamoyl)cyclohexyl)-6-(2-(piperidin-1-yl)ethoxy)-1H-imidazo[4,5-c]pyridin-2(3H)-ylidene)-3-(trifluoromethyl)benzamide]

Same assay, conditions: 2 nM enzyme, ATP 40 μM (Km apparent), 90 minutes at room temperature; mean of three replicates

Row | IC50 [µM] | Compound
20 | < 0.05 | CC(C)NC(=O)[C@H]1CC[C@@H](n2/c(=N/C(=O)c3ccc(F)c(Cl)c3)[nH]c3cnc(OCCN4CCCCC4)cc32)CC1 [Example 118, (E)-3-Chloro-4-fluoro-N-(1-(cis-4-(isopropylcarbamoyl)cyclohexyl)-6-(2-(piperidin-1-yl)ethoxy)-1H-imidazo[4,5-c]pyridin-2(3H)-ylidene)benzamide]

Source: US9115127B2 (AMGEN INC., priority 2010, dated 2015)
